Laboratory results as given in PubChem BioAssay AID248 (DTP/NCI, 2004).
Values joined by “and” are separate entries in the source; they are usually repeats but may differ in a detail not shown here. Equal entries are not always repeated. Inconclusive results and toxic doses are left out. No stated cut-off is given here; in the data, active means T/C of 150% or more; inactive means T/C below 125%.

Test system: L1210 leukemia ip in BDF1 mice, survival T/C
Assay: NCI In Vivo Anticancer Drug Screen. Data for tumor model L1210 Leukemia (intraperitoneal) in B6D2F1 (BDF1) mice
Conditions: endpoint: mean survival time, higher = longer survival
Outline: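 Ratio derived from survival: compound-dosed mice over vehicle-dosed mice, all bearing a transplantable tumor.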

[1] = dose: 100.0 mg/kg/injection, schedule: Q01DX009 (ip), vehicle: saline
[2] = dose: 200.0 mg/kg/injection, schedule: Q01DX009 (ip), vehicle: saline
[3] = dose: 400.0 mg/kg/injection, schedule: Q01DX009 (ip), vehicle: saline
[4] = dose: 100.0 mg/kg/injection, schedule: Q04DX003 (ip), vehicle: Klucel (hydroxypropylcellulose) (HPC)
[5] = dose: 200.0 mg/kg/injection, schedule: Q04DX003 (ip), vehicle: Klucel (hydroxypropylcellulose) (HPC)
[6] = dose: 400.0 mg/kg/injection, schedule: Q04DX003 (ip), vehicle: Klucel (hydroxypropylcellulose) (HPC)
[7] = dose: 100.0 mg/kg/injection, schedule: Q04DX003 (ip), vehicle: saline with Tween-80
[8] = dose: 200.0 mg/kg/injection, schedule: Q04DX003 (ip), vehicle: saline with Tween-80

Measured: T/C

O=S(=O)(C1=Cc2cccc3cccc1c23)c1ccccc1
inactive: dose: 100.0 mg/kg/injection, schedule: Q01DX001 (ip), vehicle: acetone 101 % of control | [1] 94 % of control | dose: 100.0 mg/kg/injection, schedule: Q04DX003 (ip), vehicle: acetone 105 % of control | dose: 200.0 mg/kg/injection, schedule: Q01DX001 (ip), vehicle: acetone 92 % of control | [2] 96 % of control | dose: 200.0 mg/kg/injection, schedule: Q04DX003 (ip), vehicle: acetone 105 % of control | dose: 400.0 mg/kg/injection, schedule: Q01DX001 (ip), vehicle: acetone 93 % of control | [3] 103 % of control | dose: 400.0 mg/kg/injection, schedule: Q04DX003 (ip), vehicle: acetone 97 % of control

COC1OC(COS(=O)(=O)c2ccc(C)cc2)C2OC(C)(C)OC12 (stereo unspecified)
inactive: dose: 50.0 mg/kg/injection, schedule: Q01DX009 (ip), vehicle: Klucel (hydroxypropylcellulose) (HPC) 107 % of control | dose: 50.0 mg/kg/injection, schedule: Q04DX003 (ip), vehicle: Klucel (hydroxypropylcellulose) (HPC) 92 % of control | dose: 100.0 mg/kg/injection, schedule: Q01DX009 (ip), vehicle: Klucel (hydroxypropylcellulose) (HPC) 95 % of control | [1] 96 % of control | [4] 92 % of control and 94 % of control | dose: 200.0 mg/kg/injection, schedule: Q01DX009 (ip), vehicle: Klucel (hydroxypropylcellulose) (HPC) 104 % of control | [2] 91 % of control | [5] 92 % of control and 91 % of control | dose: 400.0 mg/kg/injection, schedule: Q01DX009 (ip), vehicle: Klucel (hydroxypropylcellulose) (HPC) 96 % of control | [3] 91 % of control | [6] 105 % of control and 91 % of control

O=c1ccc2c(COc3ccc(Cl)cc3Cl)c3ccc(O)cc3oc-2c1
inactive: [4] 99 % of control | [5] 99 % of control

CC1CN(c2ccccc2)NC1=O (stereo unspecified)
inactive: dose: 100.0 mg/kg/injection, schedule: Q04DX003 (ip), vehicle: saline 97 % of control | dose: 200.0 mg/kg/injection, schedule: Q04DX003 (ip), vehicle: saline 95 % of control | dose: 400.0 mg/kg/injection, schedule: Q04DX003 (ip), vehicle: saline 97 % of control

COc1c(C)c2c(c(O)c1C/C=C(\C)CCC(=O)O)C(=O)OC2
inactive: dose: 12.5 mg/kg/injection, schedule: Q01DX001 (ip), vehicle: saline 96 % of control | dose: 25.0 mg/kg/injection, schedule: Q01DX001 (ip), vehicle: saline 100 % of control | dose: 25.0 mg/kg/injection, schedule: Q01DX009 (ip), vehicle: saline 102 % of control | dose: 50.0 mg/kg/injection, schedule: Q01DX001 (ip), vehicle: saline 103 % of control | dose: 50.0 mg/kg/injection, schedule: Q01DX009 (ip), vehicle: saline 98 % of control | dose: 100.0 mg/kg/injection, schedule: Q01DX001 (ip), vehicle: saline 100 % of control | [1] 107 % of control | dose: 100.0 mg/kg/injection, schedule: Q04DX002 (ip), vehicle: Klucel (hydroxypropylcellulose) (HPC) 104 % of control | dose: 200.0 mg/kg/injection, schedule: Q01DX001 (ip), vehicle: saline 100 % of control | [2] 118 % of control | dose: 200.0 mg/kg/injection, schedule: Q04DX002 (ip), vehicle: Klucel (hydroxypropylcellulose) (HPC) 112 % of control | dose: 400.0 mg/kg/injection, schedule: Q01DX001 (ip), vehicle: saline 100 % of control | [3] 124 % of control | dose: 400.0 mg/kg/injection, schedule: Q04DX002 (ip), vehicle: Klucel (hydroxypropylcellulose) (HPC) 112 % of control

O=C(OCCCCCOC(=O)c1ccccc1O)c1ccccc1O
inactive: dose: 100.0 mg/kg/injection, schedule: Q01DX001 (ip), vehicle: other 91 % of control | [4] 92 % of control | dose: 200.0 mg/kg/injection, schedule: Q01DX001 (ip), vehicle: other 88 % of control | [5] 91 % of control | [6] 89 % of control

CCN=C(Nc1ccc(C(=NC)NCC)cc1)c1ccc(C(=NCC)Nc2ccc(C(=NC)NCC)cc2)cc1
inactive: dose: 0.5 mg/kg/injection, schedule: Q01DX Z (ip), vehicle: saline 97 % of control | dose: 0.8 mg/kg/injection, schedule: Q01DX Z (ip), vehicle: saline 97 % of control | dose: 1.2 mg/kg/injection, schedule: Q01DX Z (ip), vehicle: saline 97 % of control | dose: 1.77 mg/kg/injection, schedule: Q01DX Z (ip), vehicle: saline 97 % of control and 89 % of control | dose: 2.66 mg/kg/injection, schedule: Q01DX Z (ip), vehicle: saline 93 % of control | dose: 4.0 mg/kg/injection, schedule: Q01DX Z (ip), vehicle: saline 96 % of control

CCCCCCCCOC(=O)Nc1ccc(S(=O)(=O)NC2CCCCC2)cc1
inactive: dose: 100.0 mg/kg/injection, schedule: Q01DX001 (ip), vehicle: carboxymethylcellulose (CMC) 89 % of control | dose: 200.0 mg/kg/injection, schedule: Q01DX001 (ip), vehicle: carboxymethylcellulose (CMC) 89 % of control | dose: 400.0 mg/kg/injection, schedule: Q01DX001 (ip), vehicle: carboxymethylcellulose (CMC) 94 % of control

COC(=O)CSC(=S)N(C)C
inactive: [7] 91 % of control | [8] 91 % of control | dose: 400.0 mg/kg/injection, schedule: Q04DX003 (ip), vehicle: saline with Tween-80 94 % of control

O=C(CC(O)(C(F)(F)F)C(F)(F)F)c1cccs1
inactive: dose: 50.0 mg/kg/injection, schedule: Q01DX009 (ip), vehicle: saline with Tween-80 109 % of control | dose: 50.0 mg/kg/injection, schedule: Q04DX003 (ip), vehicle: saline with Tween-80 98 % of control | dose: 100.0 mg/kg/injection, schedule: Q01DX009 (ip), vehicle: saline with Tween-80 102 % of control | [7] 98 % of control | [8] 96 % of control
